Structures are written as SMILES.

Data set [1] can be described thus: particle size distribution measurement by laser diffraction. To be noted: milled active substance. The class given is physicochemical. The text has this:
The value X90 refers to the 90% value of the volume distribution measured using a laser diffractometer. In other words, for the purposes of the present invention, the X90 value denotes the particle size below which 90% of the quantity of particles is found based on the volume distribution. Analogously the value X50 refers to the 50% value (median) of the volume distribution measured using a laser diffractometer. In other words, for the purposes of the present invention, the X50 value denotes the particle size below which 50% of the quantity of particles is found based on the volume distribution. Analogously the value X10 refers to the 10% value of the volume distribution measured using a laser diffractometer. In other words, for the purposes of the present invention, the X10 value denotes the particle size below which 10% of the quantity of particles is found based on the volume distribution.
Preferably all X90, X50, X10 values hereinbefore and hereinafter are by volume and determined by laser-diffraction method, in particular low angle laser light scattering, i.e. Fraunhofer diffraction. A preferred test is described in the experimental section. The laser diffraction method is sensitive to the volume of a particle and provides a volume-average particle size, which is equivalent to the weight-average particle size if the density is constant. The skilled artesian knows that the results of the particle size distribution determination by one technique can be correlated with that from another technique, for example on an empirical basis by routine experimentation. Alternatively the particle size distribution in the pharmaceutical composition or dosage form can be determined by microscopy, in particular electron microscopy or scanning electron microscopy.
Particle size distribution measurement is performed for example via light scattering or laser diffraction technique. To determine the particle size the powder is fed into a laser diffraction spectrometer for example by means of a dispersing unit. The test method is described below in detail: • Equipment: Laser Diffraction Spectrometer Sympatec HELOS Particle Sizer. • Lens: R31 (0.5/0.9 μm-175 μm) • Sample Dispersing Unit: Dry disperser RODOS/M • Vacuum: Nilfisk • Feeder: ASPIROS • Feed Velocity: 60.00 mm/s • Primary pressure: 2.00 bar • Injector depression: maximize (mbar)2 • Reference Measurement: 10 seconds • Cycle Time: 100 msec • Trigger Conditions: Start 0.0 seconds after optical concentration ≥1% valid always • Stop after 5.0 seconds optical concentration ≤1% or after 30 seconds real time • Optical Concentration: Approximately range 3-12% • Evaluation: HRLD • Sample Size: Approximately 100 mg • Number of measurements: 2 (duplicate)
The instrument is set up according to the manufacturer's recommendation and using the manufacturer provided software. The sample container is thoroughly mixed and tumbled prior to removing a portion of the sample to ensure that a representative sample is tested. Duplicate samples are prepared by using a spatula to transfer approximately 100 mg of a sample into the ASPIROS glass vials and cap the vials. The capped cials are placed into the feeder.

The test system of a further data set is serum uric acid. The data set is described as follows: twelve week study of serum uric acid levels in patients with manifest type 2 diabetes mellitus. The class given is in vivo, human. To be noted: type 2 diabetes patients; for serum uric acid level, 12 weeks: after 12 weeks. On the procedure: In a twelve week study of patients with manifest type 2 diabetes mellitus serum uric acid levels were measured at baseline and every 4 weeks in patients randomized to an administration of the compound (I.9) of 5 mg, 10 mg, or 25 mg or placebo or metformin 2000 mg, daily for 12 weeks.

Data set [2] is described as follows: body weight in cafeteria-diet obese female Wistar rats. The class given is in vivo, rat. To be noted: 28 days. The protocol: All experimental procedures concerning the use of laboratory animals were carried out under a Home Office Certificate of Designation. An animal model of obesity was used to study the effect of the compound (I.9) on body weight and total body fat content. For this, female Wistar rats were made obese by exposure to a simplified cafeteria diet containing high fat chow, chocolate and ground peanuts for approximately 24 weeks. Following the induction of obesity, rats were given vehicle (0.5% aqueous hydroxyethyl-cellulose) for 7 days and then dosed orally once daily with either vehicle or 3 mg/kg or 10 mg/kg compound (I.9) for 28 days. For the duration of the study rats were maintained on the cafeteria diet. Therein “Cpd A” denotes the glucopyranosyl-substituted benzene derivative (I.9) at a dose of 3 mg/kg or 10 mg/kg. Results are means (adjusted for differences between the body weights of the different treatment groups at baseline (Day 1))±SEM (calculated from the residuals of the statistical model), n=10. After 28 day daily oral treatment with the compound (I.9) a reduced body weight compared to the vehicle-treated control group was observed. Body weight data was analysed by analysis of covariance with body weights on Day 1 as covariate. […]

The nature of data set [3]: total body fat content (FoodScan NIR) in cafeteria-diet obese female Wistar rats. The class given is in vivo, rat. The settings on record: 10 mg/kg orally once daily, end of study Day 34, p<0.05. On the procedure:
All experimental procedures concerning the use of laboratory animals were carried out under a Home Office Certificate of Designation. An animal model of obesity was used to study the effect of the compound (I.9) on body weight and total body fat content. For this, female Wistar rats were made obese by exposure to a simplified cafeteria diet containing high fat chow, chocolate and ground peanuts for approximately 24 weeks. Following the induction of obesity, rats were given vehicle (0.5% aqueous hydroxyethyl-cellulose) for 7 days and then dosed orally once daily with either vehicle or 3 mg/kg or 10 mg/kg compound (I.9) for 28 days. […] Results are means (adjusted for differences between the body weights of the different treatment groups at baseline (Day 1))±SEM (calculated from the residuals of the statistical model), n=10. […] Body weight data was analysed by analysis of covariance with body weights on Day 1 as covariate. […]
At the end of the study on Day 34 (24 hours after the last treatment on Day 33) all rats were terminated, the body exsanguinated and the following tissues removed: the caudate liver lobe, the pancreas, the left kidney and one soleus muscle. Body composition (body fat, protein and water) was determined using the FoodScan NIR (near infra-red) meat analyser (Foss UK). […] Standard errors of the mean (SEM) are calculated from the residuals of the statistical model. […]

The next data set has as its system blood glucose. Description: oral glucose tolerance test in ZDF rats. The class given is in vivo, rat. To be noted: oral glucose load 2 g/kg 30 min later. The protocol:
According to a first example an oral glucose tolerance test is performed in overnight fasted 9-weeks old male Zucker Diabetic Fatty (ZDF) rats (ZDF/Crl-Lepr^fa). A pre-dose blood sample is obtained by tail bleed. Blood glucose is measured with a glucometer, and the animals are randomized for blood glucose (n=5/group). Subsequently, the groups receive a single oral administration of either vehicle alone (0.5% aqueous hydroxyethylcellulose containing 3 mM HCl and 0.015% Polysorbat 80) or vehicle containing the SGLT2 inhibitor. The animals receive an oral glucose load (2 g/kg) 30 min after compound administration. Blood glucose is measured in tail blood 30 min, 60 min, 90 min, 120 min, and 180 min after the glucose challenge. Glucose excursion is quantified by calculating the reactive glucose AUC. The data are presented as mean±SEM. The two-sided unpaired Student t-test is used for statistical comparison of the control group and the active groups.
Compound (I.9) (1-chloro-4-(β-D-glucopyranos-1-yl)-2-[4-((S)-tetrahydrofuran-3-yloxy)-benzyl]-benzene) was orally administered to ZDF rats at doses of 0.3 mg/kg, 3 mg/kg or 30 mg/kg body weight. Compound (I.9) reduced glucose excursion by 15% at 0.3 mg/kg (not significant), by 62% at 3 mg/kg (p<0.001) and by 89% at 30 mg/kg (p<0.001).

The next data set concerns HbA1c. To be noted: metformin on its own, in the diabetic; cited from earlier work.

As for `OC[C@H]1O[C@@H](c2ccc(Cl)c(Cc3ccc(O[C@H]4CCOC4)cc3)c2)[C@H](O)[C@@H](O)[C@@H]1O` [Active substance Batch 1], in data set [1], the “X10 (particle size, volume distribution)” value is 1.8 μm; the “X50 (particle size, volume distribution)” value worked out at 18.9 μm; the “X90 (particle size, volume distribution)” value worked out at 45.3 μm.
With `OC[C@H]1O[C@@H](c2ccc(Cl)c(Cc3ccc(O[C@H]4CCOC4)cc3)c2)[C@H](O)[C@@H](O)[C@@H]1O` [Active substance Batch 2], in data set [1], the “X10 (particle size, volume distribution)” value was found to be 1.7 μm; the “X50 (particle size, volume distribution)” value was determined as 12.1 μm; the “X90 (particle size, volume distribution)” value turned out to be 25.9 μm.
On to `OC[C@H]1O[C@@H](c2ccc(Cl)c(Cc3ccc(O[C@H]4CCOC4)cc3)c2)[C@H](O)[C@@H](O)[C@@H]1O` [Compound (I.9), 1-chloro-4-(β-D-glucopyranos-1-yl)-2-[4-((S)-tetrahydrofuran-3-yloxy)-benzyl]-benzene], for which the figures for the “serum uric acid level, baseline” value with serum uric acid (5 mg daily group), in the data set on serum uric acid (10 mg daily group) and in the data set on serum uric acid (25 mg daily group) were 5.5 mg/dL, 5.3 mg/dL and 5.4 mg/dL, respectively. Besides, the “serum uric acid level, 12 weeks” value is recorded as 5.0 mg/dL with serum uric acid (5 mg daily), 4.7 mg/dL in the data set with serum uric acid (10 mg daily) and 4.7 mg/dL with serum uric acid (25 mg daily). Besides, the “reduction in serum uric acid levels compared to baseline” value in the data set on serum uric acid (all doses (5 mg, 10 mg, 25 mg daily), 12 weeks) lay within 0.5 to 0.7 mg/dL. Further, the “reduction of body weight versus vehicle control” value in data set [2] (3 mg/kg orally once daily) came out at 4.1%; in data set [2] (10 mg/kg orally once daily, significant (p<0.05)), 6.9%. For the same compound, the “total body fat content (weight per rat) in comparison to vehicle-treated animals” value in data set [3] is listed as “significantly lower”. Also, the “reduction of glucose excursion (reactive glucose AUC)” value came to 15% with blood glucose (single oral dose 0.3 mg/kg, not significant); 62% with blood glucose (single oral dose 3 mg/kg, p<0.001); 89% in the data set with blood glucose (single oral dose 30 mg/kg, p<0.001).
In the case of `CN(C)C(=N)N=C(N)N` [Metformin, reference compound], in the data set with HbA1c, the “average improvement in the HbA1c value” was 1.0-1.5%. For the same compound, in the data set on serum uric acid (2000 mg daily group), the “serum uric acid level, baseline” value amounted to 5.6 mg/dL. Further, in the data set with serum uric acid (2000 mg daily, 12 weeks), the “change of serum uric acid levels compared to baseline” value is on record as “increased”. Also, in the data set with serum uric acid (2000 mg daily), the “serum uric acid level, 12 weeks” value is on record as 6.2 mg/dL.
